Literature values in patent US20200038318A1, “ORAL MEDICATION FORMULATIONS” (GRUNBIOTICS PTY LTD, priority 2016, published 2020).

Tested on: patients with major depressive disorder who have a partial response or no response to SSRIs
Conditions: 15 mg/day

CN1c2c([nH]c(N)nc2=O)NC[C@@H]1CNc1ccc(C(=O)N[C@@H](CCC(=O)O)C(=O)O)cc1 [L-methylfolate]
Efficacy, safety and tolerability as adjunctive treatment: effective safe and relatively well tolerated
